ChEMBL document CHEMBL4177685, “Ionic liquid mediated stereoselective synthesis of alanine linked hybrid quinazoline-4(3H)-one derivatives perturbing the malarial reductase activity in folate pathway” (Bioorg Med Chem, 2017)
Converted amounts (≈) assume the structure as drawn.

Key:
Plasmodium falciparum = assay: Antimalarial activity against Plasmodium falciparum in infected in human RBC; type: functional, organism-based; settings: Erythrocyte
Dihydrofolate reductase = target: T1, Dihydrofolate reductase (Bos taurus, UniProt P00376); assay: Inhibition of bovine liver DHFR using FH2 as substrate preincubated for 2 mins followed by substrate addition
T1 sequence (P00376 whole entry): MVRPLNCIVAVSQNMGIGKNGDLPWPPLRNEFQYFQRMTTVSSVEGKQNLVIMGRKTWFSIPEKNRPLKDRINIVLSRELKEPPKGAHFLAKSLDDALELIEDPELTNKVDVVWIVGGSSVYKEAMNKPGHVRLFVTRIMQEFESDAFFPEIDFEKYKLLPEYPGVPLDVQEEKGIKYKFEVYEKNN

bovine liver DHFR = assay: Selectivity index, ratio of IC50 for African green monkey Vero cells to IC50 for bovine liver DHFR; type: toxicity; settings: read-out: Ratio IC50
Vero = assay: Cytotoxicity against African green monkey Vero cells up to 15 ug/ml after 72 hrs by MTT assay; type: cell-based; settings: chlorocebus sabaeus

Row | SMILES | IC50 (Plasmodium falciparum) [µg/mL] | IC50 (Dihydrofolate reductase) [nM] | selectivity ratio (bovine liver DHFR) | Activity (Vero)
1 | CC(=O)Nc1ccc(S(=O)(=O)NC(C)c2nc3ccccc3c(=O)n2/N=C/c2ccccc2C)cc1 (stereo not given) | 1.28 (≈ 2.54 µM) |  |  | 
2 | COc1cccc(/C=N/n2c(C(C)NS(=O)(=O)c3ccc(NC(C)=O)cc3)nc3ccccc3c2=O)c1 (stereo not given) | 1.02 (≈ 1.97 µM) |  |  | 
3 | CC(=O)Nc1ccc(S(=O)(=O)NC(C)c2nc3ccccc3c(=O)n2/N=C/c2ccccc2Br)cc1 (stereo not given) | 0.78 (≈ 1.37 µM) |  |  | 
4 | CC(=O)Nc1ccc(S(=O)(=O)NC(C)c2nc3ccccc3c(=O)n2/N=C/c2ccc(F)cc2)cc1 (stereo not given) | 0.084 (≈ 0.166 µM) | 67 | 441 | Non-Toxic
5 | COc1cc(Cc2cnc(N)nc2N)cc(OC)c1OC [TRIMETHOPRIM] | 0.38 (≈ 1.31 µM) |  |  | 
6 | CC(=O)Nc1ccc(S(=O)(=O)NC(C)c2nc3ccccc3c(=O)n2/N=C/c2ccc(Br)cc2)cc1 (stereo not given) | 0.67 (≈ 1.18 µM) |  |  | 
7 | CC(=O)Nc1ccc(S(=O)(=O)NC(C)c2nc3ccccc3c(=O)n2/N=C/c2ccc(C)cc2)cc1 (stereo not given) | 0.068 (≈ 0.135 µM) | 165 | 181 | Non-Toxic
8 | COc1ccccc1/C=N/n1c(C(C)NS(=O)(=O)c2ccc(NC(C)=O)cc2)nc2ccccc2c1=O (stereo not given) | 0.78 (≈ 1.5 µM) |  |  | 
9 | CC(=O)Nc1ccc(S(=O)(=O)NC(C)c2nc3ccccc3c(=O)n2/N=C/c2cccc(O)c2)cc1 (stereo not given) | 1.01 (≈ 2 µM) |  |  | 
10 | CC(=O)Nc1ccc(S(=O)(=O)NC(C)c2nc3ccccc3c(=O)n2/N=C/c2cccc(C)c2)cc1 (stereo not given) | 0.72 (≈ 1.43 µM) |  |  | 
11 | CC(=O)Nc1ccc(S(=O)(=O)NC(C)c2nc3ccccc3c(=O)n2/N=C/c2ccc(O)cc2)cc1 (stereo not given) | 0.72 (≈ 1.42 µM) |  |  | 
12 | CC(=O)Nc1ccc(S(=O)(=O)NC(C)c2nc3ccccc3c(=O)n2/N=C/c2ccccc2F)cc1 (stereo not given) | 0.7 (≈ 1.38 µM) |  |  | 
13 | CC(=O)Nc1ccc(S(=O)(=O)NC(C)c2nc3ccccc3c(=O)n2/N=C/c2ccc([N+](=O)[O-])cc2)cc1 (stereo not given) | 0.084 (≈ 0.157 µM) | 82.3 | 341 | Non-Toxic
14 | CC(=O)Nc1ccc(S(=O)(=O)NC(C)c2nc3ccccc3c(=O)n2/N=C/c2ccc(Cl)cc2)cc1 (stereo not given) | 0.72 (≈ 1.37 µM) |  |  | 
15 | CC(=O)Nc1ccc(S(=O)(=O)NC(C)c2nc3ccccc3c(=O)n2/N=C/c2ccccc2[N+](=O)[O-])cc1 (stereo not given) | 0.7 (≈ 1.31 µM) |  |  | 
16 | CC(=O)Nc1ccc(S(=O)(=O)NC(C)c2nc3ccccc3c(=O)n2/N=C/c2ccccc2O)cc1 (stereo not given) | 1.05 (≈ 2.08 µM) |  |  | 
17 | CC(=O)Nc1ccc(S(=O)(=O)NC(C)c2nc3ccccc3c(=O)n2/N=C/c2cccc(Cl)c2)cc1 (stereo not given) | 1.01 (≈ 1.93 µM) |  |  | 
18 | CC(=O)Nc1ccc(S(=O)(=O)NC(C)c2nc3ccccc3c(=O)n2/N=C/c2cccc(F)c2)cc1 (stereo not given) | 0.092 (≈ 0.181 µM) | 53.2 | 556 | Non-Toxic
19 | CC(=O)Nc1ccc(S(=O)(=O)NC(C)c2nc3ccccc3c(=O)n2/N=C/c2cccc([N+](=O)[O-])c2)cc1 (stereo not given) | 0.092 (≈ 0.172 µM) | 99.1 | 283 | Non-Toxic
20 | CC(=O)Nc1ccc(S(=O)(=O)NC(C)c2nc3ccccc3c(=O)n2/N=C/c2ccccc2)cc1 (stereo not given) | 1.1 (≈ 2.25 µM) |  |  | 
21 | COc1ccc(/C=N/n2c(C(C)NS(=O)(=O)c3ccc(NC(C)=O)cc3)nc3ccccc3c2=O)cc1 (stereo not given) | 0.67 (≈ 1.29 µM) |  |  | 
22 | C=C[C@H]1CN2CC[C@H]1C[C@H]2[C@H](O)c1ccnc2ccc(OC)cc12 [QUININE] | 0.268 (≈ 0.826 µM) |  |  | 
23 | CC(=O)Nc1ccc(S(=O)(=O)NC(C)c2nc3ccccc3c(=O)n2/N=C/c2ccccc2Cl)cc1 (stereo not given) | 1.05 (≈ 2.01 µM) |  |  | 
24 | CC(=O)Nc1ccc(S(=O)(=O)NC(C)c2nc3ccccc3c(=O)n2/N=C/c2cccc(Br)c2)cc1 (stereo not given) | 1.02 (≈ 1.8 µM) |  |  | 
25 | CCc1nc(N)nc(N)c1-c1ccc(Cl)cc1 [PYRIMETHAMINE] | 0.25 (≈ 1.01 µM) |  |  | 
